Experimental data taken from patent US20060140872A1, “Novel signaling pathway for the production of inglammatory pain and neuropathy” (KOWA CO., LTD., priority 2003, published 2006).

System: allergic contact dermatitis (picryl chloride-induced dermatitis)
Assay: Mouse model of picryl chloride-induced dermatitis (auricle thickness)
Type: in vivo, mouse (female BALB/C)
Settings: applied on left auricle 1 hour before induction; thickness 24 hours after induction; dose not given; FIG. 2

## COc1cccc(-c2cc(=O)c3ccccc3o2)c1N [PD98059, 2-(2-amino-3-methoxyphenyl)-4-oxo-4H-[1]benzopyran]
  suppressive action for allergic contact dermatitis (difference in auricle thickness): exhibited suppressive action for allergic contact dermatitis
